Laboratory results taken from US20200190087A1 (priority 2016, published 2020).

Assays:
[1] = molecular target: T1, human μ-opioid receptor (Homo sapiens, UniProt P35372); test: Human μ-opioid receptor radioligand assay ([3H]-DAMGO); type: binding; conditions: transfected CHO-K1 cell membranes, 1 nM [3H]-DAMGO, binding expressed as Ki; read-out: Mu binding activity
T1 construct: expressed in transfected cells; host or cells: CHO-K1
Description: Human μ-Opioid Receptor Radioligand Assay
To investigate binding properties of test compounds to human μ-opioid receptor, transfected CHO-K1 cell membranes and [^3H]-DAMGO (Perkin Elmer, ES-542-C), as the radioligand, were used. The assay was carried out with 20 μg of membrane suspension, 1 nM of [^3H]-DAMGO in either absence or presence of either buffer or 10 μM Naloxone for total and non-specific binding, respectively. Binding buffer contained Tris-HCl 50 mM, MgCl2 5 mM at pH 7.4. Plates were incubated at 27° C. for 60 minutes. After the incubation period, the reaction mix was then transferred to MultiScreen HTS, FC plates (Millipore), filtered and plates were washed 3 times with ice-cold 10 mM Tris-HCL (pH 7.4). Filters were dried and counted at approximately 40% efficiency in a MicroBeta scintillation counter (Perkin-Elmer) using EcoScint liquid scintillation cocktail. Preferably, transfected CHO-K1 cell membranes (20 μg) were incubated with 1 nM of [^3H]-DAMGO in assay buffer containing Tris-HCl 50 mM, MgCl2 5 mM at pH 7.4. NBS (non-specific binding) was measured by adding 10 μM Naloxone. The binding of the test compound was measured at five different concentrations. Plates were incubated at 27° C. for 60 minutes. After the incubation period, the reaction mix was then transferred to MultiScreen HTS, FC plates (Millipore), filtered and plates were washed 3 times with ice-cold 10 mM Tris-HCL (pH 7.4). Filters were dried and counted at approximately 40% efficiency in a MicroBeta scintillation counter (Perkin-Elmer) using EcoScint liquid scintillation cocktail.

[2] = molecular target: Human α2δ-1 subunit of Cav2.2 calcium channel (Homo sapiens, UniProt P54289); test: Human α2δ-1 subunit of Cav2.2 calcium channel assay ([3H]-Gabapentin binding); conditions: human α2δ-1 enriched membranes, 15 nM [3H]-Gabapentin, binding expressed as Ki; read-out: α2δ1 binding activity
Chain of Human α2δ-1 subunit of Cav2.2 calcium channel (P54289 25-1103): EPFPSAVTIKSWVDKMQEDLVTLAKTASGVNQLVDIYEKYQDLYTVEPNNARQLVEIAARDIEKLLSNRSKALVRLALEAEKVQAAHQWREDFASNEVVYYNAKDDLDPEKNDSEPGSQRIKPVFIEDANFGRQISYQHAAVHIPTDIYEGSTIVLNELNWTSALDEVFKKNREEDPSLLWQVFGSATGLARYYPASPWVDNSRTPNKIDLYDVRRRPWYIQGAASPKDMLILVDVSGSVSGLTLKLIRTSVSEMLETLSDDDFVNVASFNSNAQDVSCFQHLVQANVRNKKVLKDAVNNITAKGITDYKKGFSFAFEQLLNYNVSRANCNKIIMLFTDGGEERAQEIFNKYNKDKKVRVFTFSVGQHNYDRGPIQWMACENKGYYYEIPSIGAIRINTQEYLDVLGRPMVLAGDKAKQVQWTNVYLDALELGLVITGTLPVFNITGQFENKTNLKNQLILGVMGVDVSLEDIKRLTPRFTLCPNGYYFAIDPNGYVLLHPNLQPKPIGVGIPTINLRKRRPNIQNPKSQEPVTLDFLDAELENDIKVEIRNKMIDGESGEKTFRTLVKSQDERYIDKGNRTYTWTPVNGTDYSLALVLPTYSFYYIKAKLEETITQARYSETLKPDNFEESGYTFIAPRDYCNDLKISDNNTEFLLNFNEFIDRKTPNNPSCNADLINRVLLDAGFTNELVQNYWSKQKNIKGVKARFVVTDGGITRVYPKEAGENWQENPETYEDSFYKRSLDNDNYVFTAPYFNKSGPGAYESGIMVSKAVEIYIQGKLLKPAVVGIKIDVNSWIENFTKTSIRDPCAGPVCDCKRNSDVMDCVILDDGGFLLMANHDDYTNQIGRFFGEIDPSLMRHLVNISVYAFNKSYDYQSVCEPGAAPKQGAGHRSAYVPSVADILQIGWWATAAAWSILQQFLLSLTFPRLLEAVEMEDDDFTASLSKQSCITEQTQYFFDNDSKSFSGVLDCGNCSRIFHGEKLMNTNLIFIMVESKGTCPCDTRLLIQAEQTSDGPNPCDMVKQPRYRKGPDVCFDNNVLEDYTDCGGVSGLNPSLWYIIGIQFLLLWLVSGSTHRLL
Description: Human α2δ-1 Subunit of Cav2.2 Calcium Channel Assay
Human α2δ-1 enriched membranes (2.5 μg) were incubated with 15 nM of radiolabeled [3H]-Gabapentin in assay buffer containing Hepes-KOH 10 mM, pH 7.4. NSB (non specific binding) was measured by adding 10 μM pregabalin. The binding of the test compound was measured at five different concentrations. After 60 min incubation at 27° C., binding reaction was terminated by filtering through Multiscreen GF/C (Millipore) presoaked in 0.5% polyethyleneimine in Vacuum Manifold Station, followed by 3 washes with ice-cold filtration buffer containing 50 mM Tris-HCl, pH 7.4. Filter plates were dried at 60° C. for 1 hour and 30 μl of scintillation cocktail were added to each well before radioactivity reading. Readings were performed in a Trilux 1450 Microbeta radioactive counter (Perkin Elmer).

T1 sequence (P35372 whole entry): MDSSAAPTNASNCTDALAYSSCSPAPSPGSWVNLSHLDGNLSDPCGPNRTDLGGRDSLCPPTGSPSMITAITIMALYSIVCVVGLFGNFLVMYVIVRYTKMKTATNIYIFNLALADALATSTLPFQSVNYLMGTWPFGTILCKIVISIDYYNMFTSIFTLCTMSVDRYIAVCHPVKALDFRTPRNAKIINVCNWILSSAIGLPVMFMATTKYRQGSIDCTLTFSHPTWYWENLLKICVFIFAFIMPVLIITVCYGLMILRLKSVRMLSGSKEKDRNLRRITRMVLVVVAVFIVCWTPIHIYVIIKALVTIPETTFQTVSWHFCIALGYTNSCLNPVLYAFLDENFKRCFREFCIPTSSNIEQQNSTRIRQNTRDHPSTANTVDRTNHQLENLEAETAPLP

Ki [1]	Ki [2]	Structure (SMILES)
> 500 nM	500 to 3000 nM	CCOc1ccc(-n2nc3c(C4CCN(CC(O)c5ccccc5)CC4)nnc(C)c3c2C)c(F)c1 (centres unmarked) [Ex 58, 2-(4-(2-(4-Ethoxy-2-fluorophenyl)-3,4-dimethyl-2H-pyrazolo[3,4-d]pyridazin-7-yl)piperidin-1-yl)-1-phenylethan-1-ol]
> 500 nM	≥ 5000 nM	CCOc1ccc(-n2nc3c(CCN)nnc(C)c3c2C)c(F)c1 [Ex 23, 2-(2-(4-Ethoxy-2-fluorophenyl)-3,4-dimethyl-2H-pyrazolo[3,4-d]pyridazin-7-yl)ethan-1-amine]
> 500 nM	500 to 3000 nM	CCOc1ccc(-n2nc3c(C4CCN(CC5CC5)CC4)nnc(C)c3c2C)c(F)c1 [Ex 32, 7-(1-(Cyclopropyl-methyl)piperidin-4-yl)-2-(4-ethoxy-2-fluorophenyl)-3,4-dimethyl-2H-pyrazolo[3,4-d]pyridazine]
> 500 nM	500 to 3000 nM	CCOc1ccc(-n2nc3c(C4CN(CCc5ccccc5)C4)nnc(C)c3c2C)c(F)c1 [Ex 37, 2-(4-Ethoxy-2-fluorophenyl)-3,4-dimethyl-7-(1-phenethylazetidin-3-yl)-2H-pyrazolo[3,4-d]pyridazine]
> 500 nM	500 to 3000 nM	CCOc1ccc(-n2nc3c(C4CCN(CCc5cccnc5)CC4)nnc(C)c3c2C)c(F)c1 [Ex 47, 2-(4-Ethoxy-2-fluorophenyl)-3,4-dimethyl-7-(1-(2-(pyridin-3-yl)ethyl)piperidin-4-yl)-2H-pyrazolo[3,4-d]pyridazine]
> 500 nM	500 to 3000 nM	CCOc1ccc(-n2nc3c(CCCN)nnc(C)c3c2C)c(F)c1 [Ex 20, 3-(2-(4-Ethoxy-2-fluorophenyl)-3,4-dimethyl-2H-pyrazolo[3,4-d]pyridazin-7-yl)propan-1-amine]
> 500 nM	500 to 3000 nM	CCOc1ccc(-n2nc3c(-c4cccc(CCN(C)C)c4)nnc(C)c3c2C)c(F)c1 [Ex 9, 2-(3-(2-(4-Ethoxy-2-fluorophenyl)-3,4-dimethyl-2H-pyrazolo[3,4-d]pyridazin-7-yl)phenyl)-N,N-dimethylethan-1-amine]
> 500 nM	500 to 3000 nM	CCOc1ccc(-n2nc3c(C4CCN(Cc5ncccc5F)CC4)nnc(C)c3c2C)c(F)c1 [Ex 48, 2-(4-Ethoxy-2-fluorophenyl)-7-(1-((3-fluoropyridin-2-yl)methyl)piperidin-4-yl)-3,4-dimethyl-2H-pyrazolo[3,4-d]pyridazine]
> 500 nM	500 to 3000 nM	CCOc1ccc(-n2nc3c(-c4cccc(CN(C)C)c4)nnc(C)c3c2C)c(F)c1 [Ex 8, 1-(3-(2-(4-Ethoxy-2-fluorophenyl)-3,4-dimethyl-2H-pyrazolo[3,4-d]pyridazin-7-yl)phenyl)-N,N-dimethylmethanamine]
> 500 nM	≥ 5000 nM	CCOc1ccc(-n2nc3c(CCCNC)nnc(C)c3c2C)c(F)c1 [Ex 21, 3-(2-(4-Ethoxy-2-fluorophenyl)-3,4-dimethyl-2H-pyrazolo[3,4-d]pyridazin-7-yl)-N-methylpropan-1-amine]
> 500 nM	500 to 3000 nM	CCOc1ccc(-n2nc3c(C4CCCN(Cc5ccccc5)C4)nnc(C)c3c2C)c(F)c1 (centres unmarked) [Ex 36, 7-(1-Benzylpiperidin-3-yl)-2-(4-ethoxy-2-fluorophenyl)-3,4-dimethyl-2H-pyrazolo[3,4-d]pyridazine]
> 500 nM	500 to 3000 nM	CCOc1ccc(-n2nc3c(C4CCN(Cc5ccc(O)cn5)CC4)nnc(C)c3c2C)c(F)c1 [Ex 54, 6-((4-(2-(4-Ethoxy-2-fluorophenyl)-3,4-dimethyl-2H-pyrazolo[3,4-d]pyridazin-7-yl)piperidin-1-yl)methyl)pyridin-3-ol]
> 500 nM	500 to 3000 nM	CCOc1ccc(-n2nc3c(CCCNCc4ccccc4)nnc(C)c3c2C)c(F)c1 [Ex 38, N-Benzyl-3-(2-(4-ethoxy-2-fluorophenyl)-3,4-dimethyl-2H-pyrazolo[3,4-d]pyridazin-7-yl)propan-1-amine]
